Measured values reported in patent publication US20160120894A1, “USE OF ADENOSINE ASPARTATE IN THE DI[…] M[…] INFLAMMATORY-[…] AND ITS REVERSAL” (UNIVERSIDAD NACIONAL AUTÓNOMA DE MÉXICO, priority 2013, published 2016).
“Also recorded” adds a separate entry of the source.

Tests used:
[1] = tested on: total macrophages (HIS36+/CD11b+) and inflammatory phenotype Kupffer cells (CD163+/CD11b/c+ (M1)); experiment: Reversal of established CCl4 cirrhosis: distribution of liver macrophages by flow cytometry; assay type: in vivo, Wistar rats; details: cirrhotic rats, IFC-305 50 mg/kg i.p., five and ten weeks
Experimental: FIGS. 6A and 6B relate to the obtained results regarding the distribution of macrophages. […] Percentage (%) of Kupffer cells with respect to control±standard error.
(§1) 100 g male Wistar rats were used, with free access to food and water. Cirrhosis was induced with 25 μl of CCl4 in vegetable oil three times a week for ten weeks. Once cirrhosis is established, the animals were divided into five groups: group I, treatment with CCl4 is suspended, control animals of cirrhosis are sacrificed, groups II and III is allowed to proceed cirrhosis and received three intraperitoneal injections of saline per week for 5 to 10 weeks, groups IV and V received three intraperitoneal injections of the compound at a dose of 50 mg/kg for 5 to 10 weeks; at the moment of sacrifice, serum and liver samples taken.

serum cytokines = experiment: Reversal of established CCl4 cirrhosis: serum cytokines by Luminex; assay type: in vivo, Wistar rats; details: cirrhotic rats, IFC-305 50 mg/kg i.p. three times a week vs saline
Experimental: FIGS. 3A to 3C refer to the obtained results for serum cytokines evaluated by Luminex® in the different experimental groups of cirrhotic animals (Ci) treated with IFC-305 and saline for five and ten weeks (Ci SS 5s, Ci IFC 5s, Ci SS 10s and Ci IFC 10s post-treatment with CCl4). Concentration (pg/mL)±standard deviation is shown.
as §1

[2] = tested on: Kupffer cells (CD163+/CD11b+); experiment: Prevention of CCl4-induced cirrhosis: kinetic of Kupffer cells in the liver by flow cytometry; assay type: in vivo, rats; details: CCl4+IFC-305 vs CCl4; 4, 6, 8 and 10 weeks
Experimental: FIG. 5 refers to the kinetic of Kupffer cells (CD163+/CD11b+) in the liver, assessed by flow cytometry at 4, 6, 8 and 10 weeks, administration with CCl4, IFC-305 and CCl4+IFC-305 to same time. % Kupffer cells±standard error.
(§2) In this study, four groups of six male rats of 100 g to 110 g were formed; the rats were treated simultaneously under the same doses with CCl4 (25 μl of carbon tetrachloride in vegetable oil) and IFC-305 (50 mg/Kg). All treatments were given three times a week for 4, 6 and 8 weeks; at the moment of sacrifice, of serum and liver were taken.
FIG. 5 refers to a graphic showing the total number of Kupffer cells quantified with CD163+/CD11b/c+ for 4, 6, 8 and 10 weeks of treatment with CCl4, with an increase during the development of cirrhosis that decreases with the treatment of the compound IFC-305.

[3] = tested on: cytokines in liver homogenate; experiment: Prevention of CCl4-induced cirrhosis: cytokines in liver homogenate by Luminex; assay type: in vivo, rats; details: CCl4+IFC-305 50 mg/Kg, 8 weeks
From the text: FIGS. 2A and 2B refer to the results obtained for cytokines in liver homogenate evaluated by Luminex® at 8 weeks of administration of CCl4 and CCl4+IFC-305. Concentration (pg/mL)±standard deviation is shown.
(§3) Cirrhosis is a disease chronic degenerative characterized by diffuse fibrosis and regenerative nodules distorting tissue architecture. The diffuse fibrosis is supported by a chronic inflammatory process. During this process, chemokines and cytokines that favor this process are generated. In a model of prevention of cirrhosis by treatment with adenosine aspartate, knowing having an antifibrogenic effect, would allow knowing the effect of this drug during the establishment of cirrhosis for 4, 6 and 8 weeks and its effect on response activation immune and inflammation.
as §2

Arginase I = experiment: Reversal of established CCl4 cirrhosis: Western blot of Arginase I in liver homogenate; assay type: in vivo, Wistar rats; details: cirrhotic rats, IFC-305 50 mg/kg i.p., five and ten weeks
Experimental: FIG. 7 refers to Western blot Arginase I. Expression of total protein in liver homogenate in the different experimental groups treated with IFC-305 and saline for five and ten weeks.
as §1

serum cytokine = experiment: Prevention of CCl4-induced cirrhosis: serum cytokines by Luminex; assay type: in vivo, rats
From the text: FIGS. 1A to 1C refer to the obtained results for serum cytokine evaluated by Luminex® at 4, 6 and 8 weeks of administration of CCl4 and CCl4+IFC. Concentration (pg/mL)±standard deviation is shown.
as §3, §2

[4] = tested on: cytokines in liver homogenate; experiment: Reversal of established CCl4 cirrhosis: cytokines in liver homogenate by Luminex; assay type: in vivo, Wistar rats; details: cirrhotic rats, IFC-305 50 mg/kg i.p.
Experimental: FIGS. 4A to 4D refer to the obtained results for cytokines in liver homogenate evaluated by Luminex® in the different experimental groups of cirrhotic animals (Ci) treated with IFC-305 and saline for five and ten weeks (Ci SS 5s, Ci IFC 5s, Ci SS 10s, and Ci IFC 10s). Concentration (pg/mL)±standard deviation is shown.
as §1

[5] = CCl4+IFC-305 50 mg/Kg three times a week vs CCl4, 4, 6 and 8 weeks

adenosine aspartate [IFC-305]
Kupffer cells with inflammatory phenotype (M1) CD163+/CD11b/c+ [1]: decrease; also recorded: decreasing during the progression of cirrhosis and markedly with the treatment | total macrophages (HIS36+/CD11b+) in the liver [1]: increases | serum IL-4 (serum cytokines; 5 weeks): kept in similar values to controls or less; also recorded: maintained in an equal range to the control or lower | serum IL-6 (serum cytokines; 5 weeks): kept in similar values to controls or less; also recorded: maintained in an equal range to the control or lower | serum IL-1β (serum cytokines; 10 weeks): kept in similar values to controls or less; also recorded: maintained in an equal range to the control or lower | total number of Kupffer cells (CD163+/CD11b/c+) in the liver [2]: decreases | liver homogenate IL-1β [3]: decreases | liver homogenate IL-4 [3]: decreases | liver homogenate IL-6 [3]: increase relative to the control | liver homogenate IL-10 [3]: decreases | liver homogenate IL-12 [3]: increase relative to the control | liver homogenate INF-γ [3]: increase relative to the control | liver homogenate MCP-1 [3]: increase relative to the control | liver homogenate IL-6 ([3]; listed as adenosine aspartate): increase | arginase (Arginase I) protein in liver homogenate, Western blot (Arginase I): more amount of enzyme | arginase (Arginase I) protein in liver homogenate, Western blot (Arginase I; 50 mg/kg): increased | serum IL-1β (serum cytokine; [5]): decreasing | serum IL-4 (serum cytokine; [5]): decreasing; also recorded: decreased | serum IL-6 (serum cytokine; CCl4+IFC-305 50 mg/Kg vs CCl4, 4 and 6 weeks): decreasing; also recorded: decrease | serum IL-6 (serum cytokine; CCl4+IFC-305 50 mg/Kg, 8 weeks): increase | inflammatory cytokines in liver homogenate (cirrhosis high values) ([4]; 5 to 10 weeks): reduced | liver homogenate IL-1β ([4]; five and ten weeks): decreased compared to cirrhotic control | liver homogenate IL-4 ([4]; five and ten weeks): decreased compared to cirrhotic control | liver homogenate IL-6 ([4]; five and ten weeks): regulated | IL-10 (anti-inflammatory cytokine), liver homogenate ([4]; five and ten weeks, 50 mg/kg): increased
